Experimental data taken from the supplement of paper PMC10307832.

Legend:
Experiment in all cases: relative viability (nuclei count vs DMSO), 5 days (fraction); higher = more cells survive
AZD6482 + Dasatinib = compound: Cc1cc([C@@H](C)Nc2ccccc2C(=O)O)c2nc(N3CCOCC3)cc(=O)n2c1 [AZD6482] + Cc1nc(Nc2ncc(C(=O)Nc3c(C)cccc3Cl)s2)cc(N2CCN(CCO)CC2)n1 [Dasatinib] (partner 0.075 µM)
Outline: (§1)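 After 5 days of treatment, lung cancer cells in 1536-well plates were fixed and stained in a single step (final 0.05% Triton X-100, 1% formaldehyde, 1 ug/ml Hoechst) and their nuclei counted on 4× images. Treatment had been applied by pin tool the day after seeding as one drug alone or as a fixed anchor-drug dose with five library-drug doses (not always all listed) in √10 steps. Relative viability is the nuclei count of treated wells divided by that of vehicle wells, and values are medians of duplicate plates.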

[1] = compound: COc1cc2nc(N3CCCN(C)CC3)nc(NC3CCN(Cc4ccccc4)CC3)c2cc1OC + Nc1ncn([C@H]2C[C@H](O)[C@@H](CO)O2)c(=O)n1 [Decitabine] (partner 2 µM)
Outline: as §1

AZD6482 + Luminespib = compound: Cc1cc([C@@H](C)Nc2ccccc2C(=O)O)c2nc(N3CCOCC3)cc(=O)n2c1 [AZD6482] + CCNC(=O)c1noc(-c2cc(C(C)C)c(O)cc2O)c1-c1ccc(CN2CCOCC2)cc1 [Luminespib] (partner 0.01 µM)
Outline: as §1

[2] = compound: COc1cc2nc(N3CCCN(C)CC3)nc(NC3CCN(Cc4ccccc4)CC3)c2cc1OC + CC(C)C[C@H](NC(=O)[C@H](Cc1ccccc1)NC(=O)c1cnccn1)B(O)O [Bortezomib] (partner 0.002 µM)
Outline: as §1

| Cell Line | relative viability (AZD6482 + Dasatinib; first compound 0.08 µM) | relative viability (AZD6482 + Dasatinib; first compound 0.253 µM) | relative viability (AZD6482 + Dasatinib; first compound 0.8 µM) | relative viability (AZD6482 + Dasatinib; first compound 2.53 µM) | relative viability (AZD6482 + Dasatinib; first compound 8 µM) | relative viability ([1]; first compound 0.2 µM) | relative viability ([1]; first compound 0.6325 µM) | relative viability ([1]; first compound 2 µM) | relative viability ([1]; first compound 6.325 µM) | relative viability (AZD6482 + Luminespib; first compound 0.08 µM) | relative viability (AZD6482 + Luminespib; first compound 0.253 µM) | relative viability (AZD6482 + Luminespib; first compound 0.8 µM) | relative viability (AZD6482 + Luminespib; first compound 2.53 µM) | relative viability (AZD6482 + Luminespib; first compound 8 µM) | relative viability ([2]; first compound 0.2 µM) | relative viability ([2]; first compound 0.6325 µM) | relative viability ([2]; first compound 2 µM) | relative viability ([2]; first compound 6.325 µM) |
| --- | --- | --- | --- | --- | --- | --- | --- | --- | --- | --- | --- | --- | --- | --- | --- | --- | --- | --- |
| NCI-H1437 | 0.599 | 0.316 | 0.44 | 0.282 | 0.244 | 0.61 | 0.522 | 0.584 | 0.577 | 1.16 | 1.2 | 1.14 | 0.969 | 1.15 | 0.614 | 0.683 | 0.65 | 0.459 |
| NCI-H1650 | 0.224 | 0.278 | 0.316 | 0.234 | 0.318 | 0.403 | 0.399 | 0.377 | 0.353 | 0.182 | 0.189 | 0.204 | 0.186 | 0.194 | 0.228 | 0.189 | 0.2 | 0.216 |
| NCI-H1651 | 0.335 | 0.435 | 0.401 | 0.337 | 0.307 | 0.587 | 0.598 | 0.639 | 0.617 | 0.779 | 0.805 | 0.773 | 0.812 | 0.753 | 0.884 | 0.939 | 1.03 | 0.934 |
| NCI-H1666 | 0.801 | 0.845 | 0.906 | 0.737 | 0.946 | 0.597 | 0.805 | 0.658 | 0.729 | 1 | 0.942 | 1.06 | 0.876 | 1.21 | 0.832 | 0.781 | 0.701 | 0.468 |
| NCI-H1734 | 0.459 | 0.406 | 0.424 | 0.267 | 0.338 | 0.504 | 0.469 | 0.516 | 0.519 | 0.194 | 0.167 | 0.164 | 0.163 | 0.205 | 0.919 | 0.792 | 1.05 | 0.662 |
| NCI-H1755 | 0.299 | 0.379 | 0.385 | 0.288 | 0.299 | 0.657 | 0.669 | 0.689 | 0.663 | 0.24 | 0.488 | 0.411 | 0.322 | 0.218 | 1 | 0.965 | 0.922 | 0.88 |
| NCI-H1792 | 0.769 | 0.703 | 0.862 | 0.569 | 0.515 | 0.625 | 0.553 | 0.481 | 0.496 | 0.373 | 0.392 | 0.458 | 0.19 | 0.353 | 0.952 | 1.01 | 1.08 | 1.22 |
| NCI-H1915 | 0.298 | 0.289 | 0.329 | 0.286 | 0.296 | 0.263 | 0.26 | 0.276 | 0.264 | 0.697 | 0.698 | 0.824 | 0.696 | 0.778 | 0.97 | 0.973 | 1.02 | 0.957 |
| NCI-H1975 | 0.312 | 0.327 | 0.389 | 0.289 | 0.235 | 0.37 | 0.39 | 0.419 | 0.37 | 0.171 | 0.272 | 0.17 | 0.162 | 0.224 | 0.371 | 0.376 | 0.346 | 0.413 |
